# System: L5178Y mouse lymphoma cells (ATCC CRL 1722)
# Experiment: Genotoxicity: Comet-Assay (alkaline electrophoresis, extent tail moment)
# Format: cell-based
# Conditions: 1, 3, and 10 μg/mL
# Protocol: Material: “Normal Melting Agarose” (NMA, Cat.-No. 840041) and “Low Melting Agarose” (LMA, Kat.-Nr. 870081) were obtained from Biozym (Hamburg, Germany), Triton x-100 from Fluka (Buchs S G, Schwitzerland), RPMI1640-medium, DMSO, and EDTA from Sigma-Aldrich (Taufkirchen, Germany), NaCl and Tris from Roth (Karlsruhe, Germany) and foetal calf serum (FCS) from Gibco (Karlsruhe, Germany). Sorbicillactone A of the batch: 2208/2a was used.
# Cells: The genotoxicity of sorbicillactone A was tested on L5178Y mouse lymphoma cells (ATCC CRL 1722). As described (Müller et al., 1979, Cancer Res. 39:1102-1107), the cells were cultured in RPMI1640-medium with 10 mM Hepes, which was supplemented with 10% foetal calf serum (FCS). As a concentration of the inoculum, 10^4 cells/mL was chosen. The cells were incubated with 1, 3, and 10 μg/mL sorbicillactone A for 4 and 24 hours. After the incubation, the cells were examined with the “Comet-Assay”.
# Alkaline electrophoresis: The object slides (Superfrost) were cleaned with acetone. 1.0-percent “Normal Melting Agarose” (NMA) in 1×PBS was cooked, and subsequently about 600 μl of agarose were applied onto an object slide. The object slides were shortly (˜5 min) dried at 50° C., and stored over night at room temperature. Then, the 0.7-percent “Low Melting Agarose” (LMA) was prepared in distilled water. The second layer on the object slides consisted of 200 μl LMA. […]
smiles,measurement,setting,value
C/C=C/C=C/C(O)=C1/C(=O)C(C)=C(O)[C@@]2(C)OC(=O)[C@@](C)(NC(=O)/C=C/C(=O)O)[C@@H]12 [sorbicillactone A],change of the extent tail moment (DNA-strand scissions),"4 hours incubation, FIG. 2A",did not exhibit significant changes
same,change of the extent tail moment (DNA-strand scissions),"24 hours incubation, FIG. 2B",no significant changes

# From patent US20070135515A1, “Method for producing sorbicillactone a” (priority 2004, published 2007)
